Consider four sequences from patent publication US10188710B2, “Regulatory T cell epitope and hepatitis C virus homolog” (Rhode Island Council on Postsecondary Education, priority 2013, dated 2019).

Holding throughout (format): cell-based, human
Assay [1] has as its system PBMCs derived from HCV-infected (Ab+VL+) patients. Kind of assay: CD3+CD4+FoxP3+ cell induction in PBMC cultures from HCV-infected patients (flow cytometry). Conditions: 10 μg/ml peptide, 5 days; for increase in CD3+CD4+FoxP3+ cells: PBMCs from Ab+VL+ patients, vs medium alone. An excerpt: (§1) HCV-seropositive subjects with persistent viremia (Ab^+VL^+), patients who spontaneously resolved infection (Ab^+VL^−) and HCV-seronegative, non-infected (Ab^−VL^−) individuals were recruited from the Rhode Island Adult Corrections Institution (ACI) to participate in this study. Recruitment methods and the population are described elsewhere. The Institutional Review Boards of the Miriam Hospital, Rhode Island Department of Corrections and Office of Human Research Protection approved this study. All HCV infected subjects included in these analyses were infected with HCV genotype 1a or 1b (Versant HCV genotype assay 2, Siemens Healthcare Diagnostics Inc.). Hartford Hospital Transplantation Research Laboratory (Hartford, Conn.) and the Cellular Mediated Immunology Core Laboratory at the University of Rhode Island (Providence, R.I.) performed HLA typing.
Cryopreserved PBMCs were thawed; suspended in HEPES-buffered RPMI1640 medium supplemented with 10% HuAB serum (Valley Biomedical, Winchester, Va.), glutamine, 100 U/ml penicillin and 100 μg/ml streptomycin; and rested overnight at 37° C. in a humidified, CO2 incubator. On the following day, the PBMCs were centrifuged and resuspended in fresh medium containing 5% HuAB serum; 1×10^6 cells/nil were transferred to deep, flat-bottom, non-treated 48-well plates. The peptide sequence indicated in the text was added (10 μg/ml final concentration) and the cells were incubated for 5 days. PBMCs cultured in the presence of medium with 0.1% DMSO served as a negative control. Half the spent medium was replaced on day 3. The cells were collected for analysis on day 5.
The cells collected after 5 days incubation were quantified and characterized in accordance with methods we described previously. Dye-conjugated mouse monoclonal antibodies specific for the following determinants were purchased from BioLegend (San Diego, Calif.) and used: CD3, CD4 (clone OKT4), CD8a (clone HIT8a); CD39 (clone A1), and CD304 (clone 14H4); anti-human CD25 (clone M-A251) and anti-human FoxP3 (clone 236a) were purchased BD Biosciences (San Jose, Calif.). Data were collected on a 4 laser (13 color capability) BD LSRII Flow Cytometer (BD Biosciences, San Jose, Calif.) and analyzed using FlowJo software (Tree Star, Inc., Ashland, Oreg.). All analyses were conducted using the appropriate isotype controls to correct for non-specific staining PBMCs were cultured in the presence of medium alone, 10 μg/ml HCV_G1_p7_794, or 10 μg/ml HCV_G1_NS4b_1941.
The results were analyzed using the SigmaStat statistics program (Aspire Software International). Individual means were compared using a non-paired Student's t test or a Mann-Whitney Rank Sum test.
The cells were collected after 5 days incubation and analyzed by flow cytometry (FIGS. 1A-1C). The CD3+CD4+FoxP3+ cells were further characterized by the expression of CD25 and CD39 (FIG. 1B). The gating scheme and representative analyses are shown.

In assay [2] the test system is PBMCs derived from non-infected (Ab-VL-) individuals. Put plainly: CD3+CD4+FoxP3+ cell induction in PBMC cultures from non-infected individuals (flow cytometry). The conditions noted are these: 10 μg/ml peptide, 5 days.
Description: as §1, with “typing. […]” for “typing.”
The cells collected after 5 days incubation were quantified and characterized in accordance with methods we described previously. […] Data were collected on a 4 laser (13 color capability) BD LSRII Flow Cytometer (BD Biosciences, San Jose, Calif.) and analyzed using FlowJo software (Tree Star, Inc., Ashland, Oreg.). […]
The results were analyzed using the SigmaStat statistics program (Aspire Software International). […]

Assay [3] deals with CFSE-labeled Ab+VL+ PBMCs. Put plainly: CFSE proliferation assay with or without anti-CD3. As to the method:
For proliferation assays, cells rested overnight were labeled with carboxyfluorescein diacetate, succinimidyl ester (CFSE: Life Technologies Corporation, Carlsbad, Calif.) prior to culture in the presence or absence of 30 ng/ml anti-CD3 monoclonal antibody (clone HIT3a; BioLegend, San Diego, Calif.) and 10 μg/ml HCV_G1_p7_794. Cell proliferation was evaluated by flow cytometric analysis according to the protocol provided by Life Technologies in which a loss in fluorescence intensity correlates directly with the extent of replication.
The hallmark of CD3^+CD4^+FoxP3^+ Treg cells is suppressor activity. CSFE-labeled, Ab^+VL^+ PBMCs were cultured with medium alone or medium that contained 30 ng/ml anti-CD3, 10 μg/ml HCV_G1_p7_794 or a combination of anti-CD3 and HCV_G1_p7_794. After 5 days incubation, the cells were collected and proliferation the total (FIG. 3BA) and CD3^+CD4^+ (FIG. 3B) PBMC populations was estimated by flow cytometry. Data were obtained in a single experiment representative of the results obtained for PBMCs derived from six HCV-infected patients.

“Also recorded” adds a separate entry of the source.

For “AARVTQILSSL TITQLLKRLHQWI [HCV_G1_NS4b_1941, reference compound]”, the “increase in CD3+CD4+FoxP3+ cells” value in assay [1] was “failed to promote an increase”.

On to PLLLLLLSLPPRA [Human p7_794], for which the “increase in CD3+CD4+FoxP3+ cells” value is reported as “significant increase” in assay [1], “three” in assay [2] and “significant increase” in assay [2] (vs medium alone).

As to “WPLLLLLLALPQRAYAQ (Hepatitis C virus) [HCV_G1_p7_794]”, in assay [1] (Ab+VL+ PBMCs), the “CD25 and CD39 expression by induced CD3+CD4+FoxP3+ cells” value was “expressed both CD25; also recorded: vast majority of these cells expressed CD39”; the “CD304 (neuropilin) expression by CD4+FoxP3+ cells” value was “vast majority of CD4^+FoxP3^+ cells among Ab^+VL^+ PBMCs cultured in the presence of HCV_G1_p7_794 were CD304-negative; also recorded: only a minority”. Also, the “increase in CD3+CD4+FoxP3+ cells” value in assay [1] was “marked increase”. Besides, the “effect on proliferative response to anti-CD3 monoclonal antibody” value in assay [3] (30 ng/ml anti-CD3 plus 10 μg/ml peptide, 5 days, total or CD3+CD4+ population) is “reproducible, albeit slight, decrease”. Besides, in assay [3] (10 μg/ml peptide alone, no anti-CD3, 5 days), the “effect on proliferation of CD3+CD4+ T cells” value was “no effect”.

For the sequence “ISGIQYLAGLSTLPGNPA [HCV_G1_NS4b_1769, reference compound]”, the “increase in CD3+CD4+FoxP3+ cells” value in assay [1] is reported as “failed to elicit a CD3+CD4+FoxP3+ cell response”.
